{"source": "ChEMBL document CHEMBL4732108", "about": "“Targeting the K11.1 (hERG) channel with allosteric modulators. Synthesis and biological evaluation of three novel series of LUF7346 derivatives” (Eur J Med Chem, 2021)", "key": {"hERG (KCNH2)": {"biological_target": "hERG (KCNH2) (Homo sapiens, UniProt Q12809)", "sequence (Q12809 whole entry)": "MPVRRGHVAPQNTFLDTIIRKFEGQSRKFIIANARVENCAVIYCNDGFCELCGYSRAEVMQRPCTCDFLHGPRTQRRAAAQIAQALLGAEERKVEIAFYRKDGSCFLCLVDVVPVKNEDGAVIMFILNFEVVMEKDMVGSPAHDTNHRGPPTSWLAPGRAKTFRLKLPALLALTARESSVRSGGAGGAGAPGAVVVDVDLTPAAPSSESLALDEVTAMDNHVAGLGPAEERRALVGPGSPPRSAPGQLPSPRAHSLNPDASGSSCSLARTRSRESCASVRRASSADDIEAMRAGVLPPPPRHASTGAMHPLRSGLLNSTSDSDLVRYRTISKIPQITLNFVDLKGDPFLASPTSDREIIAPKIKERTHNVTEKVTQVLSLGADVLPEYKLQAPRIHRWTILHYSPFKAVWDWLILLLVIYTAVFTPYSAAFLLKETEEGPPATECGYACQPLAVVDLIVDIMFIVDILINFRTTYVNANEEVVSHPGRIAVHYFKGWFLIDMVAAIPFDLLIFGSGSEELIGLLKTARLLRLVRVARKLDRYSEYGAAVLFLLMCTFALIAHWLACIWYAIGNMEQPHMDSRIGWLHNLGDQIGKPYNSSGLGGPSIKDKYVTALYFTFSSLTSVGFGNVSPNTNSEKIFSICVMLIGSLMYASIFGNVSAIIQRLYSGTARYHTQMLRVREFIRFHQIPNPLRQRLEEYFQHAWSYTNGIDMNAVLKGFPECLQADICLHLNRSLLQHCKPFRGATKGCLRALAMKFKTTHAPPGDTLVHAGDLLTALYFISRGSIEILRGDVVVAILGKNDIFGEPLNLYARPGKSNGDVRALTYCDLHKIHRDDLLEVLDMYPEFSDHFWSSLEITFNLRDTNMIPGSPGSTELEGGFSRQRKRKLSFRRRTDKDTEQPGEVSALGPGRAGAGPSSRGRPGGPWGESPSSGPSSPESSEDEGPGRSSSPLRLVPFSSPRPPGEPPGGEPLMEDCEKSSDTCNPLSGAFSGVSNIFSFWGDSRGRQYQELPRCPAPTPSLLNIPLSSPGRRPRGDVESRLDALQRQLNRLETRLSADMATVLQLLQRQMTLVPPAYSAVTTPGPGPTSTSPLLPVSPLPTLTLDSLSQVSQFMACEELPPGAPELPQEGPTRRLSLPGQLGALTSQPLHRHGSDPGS", "experiment": "Displacement of [3H]dofetilide from human ERG stably expressed in HEK293 cell membranes assessed as residual binding level at 10 uM measured after 60 mins by microbeta liquid scintillation counting method relative to control", "design": "species or system Membrane", "settings": "membranes of HEK293 cells stably expressing hERG, probe [3H]dofetilide, read-out: Activity"}, "[1]": {"system": "Stem cell-derived cardiomyocyte", "experiment": "Effect on human iPSC-derived cardiomyocytes assessed as reduction in beating rate by measuring change in RR interval at 30 uM by microarray electrode based assay", "type": "functional, tissue-based"}, "[2]": {"system": "Stem cell-derived cardiomyocyte", "experiment": "Effect on human iPSC-derived cardiomyocytes assessed as reduction in beating rate by measuring change in RR interval at higher concentration by microarray electrode based assay", "type": "functional"}, "[3]": {"system": "Stem cell-derived cardiomyocyte", "experiment": "Effect on human iPSC-derived cardiomyocytes assessed as prolongation of field potential duration by microarray electrode based assay", "type": "functional, tissue-based"}, "[4]": {"biological_target": "T1, Voltage-gated inwardly rectifying potassium channel KCNH2 (Homo sapiens, UniProt Q12809)", "T1 sequence (Q12809 whole entry)": "as above", "experiment": "Channel blockade of human ERG stably expressed in HEK293 cells assessed as decrease in current density at 5 uM with -60 mV holding potential measured after 5 mins by whole cell patch clamp method", "settings": "hek293, 5 min"}, "[5]": {"system": "Stem cell-derived cardiomyocyte", "experiment": "Effect on human iPSC-derived cardiomyocytes assessed as change in field potential duration by microarray electrode based assay", "type": "functional"}, "[6]": {"system": "Stem cell-derived cardiomyocyte", "experiment": "Effect on dofetilide-induced reduction in RR interval in human iPSC-derived cardiomyocytes by microarray electrode based assay", "type": "functional"}, "[7]": {"system": "Stem cell-derived cardiomyocyte", "experiment": "Effect on human iPSC-derived cardiomyocytes assessed as suppression of dofetilide-induced increase in field potential duration by microarray electrode based assay", "type": "functional"}, "[8]": {"biological_target": "T1, Voltage-gated inwardly rectifying potassium channel KCNH2", "experiment": "Displacement of [3H]dofetilide from human ERG stably expressed in HEK293 cell membranes assessed as unlabelled dofetilide IC50 at 1 uM measured after 60 mins by microbeta liquid scintillation counting method (reference value: 9.1 to 11.7 nM)", "design": "species or system Membrane"}, "[9]": {"biological_target": "T1, Voltage-gated inwardly rectifying potassium channel KCNH2", "experiment": "Displacement of [3H]dofetilide from human ERG stably expressed in HEK293 cell membranes assessed as unlabelled dofetilide IC50 at 3 uM measured after 60 mins by microbeta liquid scintillation counting method (reference value: 9.1 to 11.7 nM)", "design": "species or system Membrane"}, "[10]": {"system": "Stem cell-derived cardiomyocyte", "experiment": "Effect on dofetilide-induced reduction in RR interval in human iPSC-derived cardiomyocytes at 10 to 30 uM by microarray electrode based assay", "type": "functional", "settings": "dose 10-30 µM"}, "[11]": {"system": "Stem cell-derived cardiomyocyte", "experiment": "Effect on human iPSC-derived cardiomyocytes assessed as suppression of dofetilide-induced increase in field potential duration at 10 to 30 uM by microarray electrode based assay", "type": "functional", "settings": "dose 10-30 µM"}, "[12]": {"system": "Stem cell-derived cardiomyocyte", "experiment": "Effect on human iPSC-derived cardiomyocytes assessed as shortening of field potential duration by microarray electrode based assay", "type": "functional, tissue-based"}, "[13]": {"biological_target": "T1, Voltage-gated inwardly rectifying potassium channel KCNH2", "experiment": "Negative allosteric modulation of human ERG stably expressed in HEK293 cells assessed as increase in current density at 5 uM with -60 mV holding potential measured after 5 mins by whole cell patch clamp method", "settings": "hek293, 5 min"}, "[14]": {"biological_target": "T1, Voltage-gated inwardly rectifying potassium channel KCNH2", "experiment": "Displacement of [3H]dofetilide from human ERG stably expressed in HEK293 cell membranes assessed as unlabelled dofetilide IC50 at 10 uM measured after 60 mins by microbeta liquid scintillation counting method (reference value: 9.1 to 11.7 nM)", "design": "species or system Membrane"}}, "note": "Active and inactive are the calls of the source. The calls are words filed in the database; no cut-off is given here."}
{"smiles": "O=C(COc1ccc(C(=O)c2cc(Cl)ccc2Br)cc1)Nc1cccc(C(=O)NC2CC2)c1", "values": [{"measurement": "activity at 1 h, 10 µM", "setting": "hERG (KCNH2)", "result": 27, "unit": "%"}]}
{"smiles": "O=C(COc1ccc(C(=O)c2cc(Cl)ccc2Br)cc1)Nc1cccc(C(=O)NCC2CC2)c1Cl", "values": [{"measurement": "activity at 1 h, 10 µM", "setting": "hERG (KCNH2)", "result": -2, "unit": "%"}]}
{"smiles": "O=C(COc1ccc(C(=O)c2cc(Cl)ccc2Br)cc1)Nc1ccc(Cl)c(C(=O)NCC2CC2)c1", "values": [{"measurement": "activity at 1 h, 10 µM", "setting": "hERG (KCNH2)", "result": 20, "unit": "%"}]}
{"smiles": "O=C(COc1ccc(C(=O)c2cc(Cl)ccc2Br)cc1)Nc1cncc(C(=O)NCC2CC2)c1", "values": [{"measurement": "Activity", "setting": "[1]", "result": "Active"}, {"measurement": "Activity", "setting": "[2]", "result": "Active"}, {"measurement": "Activity", "setting": "[3]", "result": "Active"}, {"measurement": "Activity", "setting": "[4]", "result": "Active"}, {"measurement": "activity at 1 h, 10 µM", "setting": "hERG (KCNH2)", "result": 2, "unit": "%"}]}
{"smiles": "CC(C)CNC(=O)c1cccc(NC(=O)COc2ccc(C(=O)c3cc(Cl)ccc3Br)cc2)c1", "values": [{"measurement": "activity at 1 h, 10 µM", "setting": "hERG (KCNH2)", "result": 46, "unit": "%"}]}
{"smiles": "COc1ccc(C#N)cc1NC(=O)COc1ccc(C(=O)c2cc(Cl)ccc2Br)cc1", "values": [{"measurement": "activity at 1 h, 10 µM", "setting": "hERG (KCNH2)", "result": 28, "unit": "%"}]}
{"smiles": "N#Cc1cncc(NC(=O)COc2ccc(C(=O)c3cc(Cl)ccc3Br)cc2)c1", "values": [{"measurement": "Activity", "setting": "[5]", "result": "inactive"}, {"measurement": "Activity", "setting": "[2]", "result": "Active"}, {"measurement": "Activity", "setting": "[6]", "result": "inactive"}, {"measurement": "Activity", "setting": "[7]", "result": "inactive"}]}
{"smiles": "Cc1ccc(NC(=O)COc2ccc(C(=O)c3cc(Cl)ccc3Br)cc2)cc1C#N", "values": [{"measurement": "activity at 1 h, 10 µM", "setting": "hERG (KCNH2)", "result": 87, "unit": "%"}]}
{"smiles": "CNC(=O)c1cccc(NC(=O)COc2ccc(C(=O)c3cc(Cl)ccc3Br)cc2)c1", "values": [{"measurement": "activity at 1 h, 10 µM", "setting": "hERG (KCNH2)", "result": 39.8, "unit": "%"}]}
{"smiles": "N#Cc1ccc(Cl)c(NC(=O)COc2ccc(C(=O)c3cc(Cl)ccc3Br)cc2)c1", "values": [{"measurement": "activity at 1 h, 10 µM", "setting": "hERG (KCNH2)", "result": 44, "unit": "%"}]}
{"smiles": "N#Cc1cc(NC(=O)COc2ccc(C(=O)c3cc(Cl)ccc3Br)cc2)ccc1F", "values": [{"measurement": "activity at 1 h, 10 µM", "setting": "hERG (KCNH2)", "result": 22.7, "unit": "%"}]}
{"smiles": "O=C(COc1ccc(C(=O)c2cc(Cl)ccc2Br)cc1)Nc1cc(Cl)cc(C(=O)NCC2CC2)c1", "values": [{"measurement": "activity at 1 h, 10 µM", "setting": "hERG (KCNH2)", "result": 36, "unit": "%"}]}
{"smiles": "O=C(COc1ccc(C(=O)c2cc(Cl)ccc2Br)cc1)Nc1cccc(C(=O)NCC2CC2)c1", "values": [{"measurement": "activity at 1 h, 10 µM", "setting": "hERG (KCNH2)", "result": 36.6, "unit": "%"}]}
{"smiles": "O=C(COc1ccc(C(=O)c2cc(Cl)ccc2Br)cc1)Nc1ccnc(C(=O)NCC2CC2)c1", "values": [{"measurement": "activity at 1 h, 10 µM", "setting": "hERG (KCNH2)", "result": 53, "unit": "%"}]}
{"smiles": "O=C(COc1ccc(C(=O)c2cc(Cl)ccc2Br)cc1)Nc1cccnc1", "values": [{"measurement": "activity at 1 h, 10 µM", "setting": "hERG (KCNH2)", "result": 28.2, "unit": "%"}]}
{"smiles": "N#Cc1cc(NC(=O)COc2ccc(C(=O)c3cc(Cl)ccc3Br)cc2)ccc1Cl", "values": [{"measurement": "activity at 1 h, 10 µM", "setting": "hERG (KCNH2)", "result": 86, "unit": "%"}]}
{"smiles": "N#Cc1cccc(NC(=O)COc2ccc(C(=O)c3cc(Cl)ccc3Br)cc2)c1", "values": [{"measurement": "IC50", "setting": "[8]", "result": 28.3, "unit": "nM"}, {"measurement": "activity at 1 h, 10 µM", "setting": "hERG (KCNH2)", "result": 20, "unit": "%"}]}
{"smiles": "O=C(COc1ccc(C(=O)c2cc(Cl)ccc2Br)cc1)Nc1cc(C(=O)NCC2CC2)ccc1Cl", "values": [{"measurement": "activity at 1 h, 10 µM", "setting": "hERG (KCNH2)", "result": 89, "unit": "%"}]}
{"smiles": "N#Cc1cccc(NC(=O)COc2ccc(C(=O)c3cc(Cl)ccc3Br)cc2)c1F", "values": [{"measurement": "activity at 1 h, 10 µM", "setting": "hERG (KCNH2)", "result": 21, "unit": "%"}]}
{"smiles": "O=C(COc1ccc(C(=O)c2cc(Cl)ccc2Br)cc1)Nc1ccnc(Cl)c1", "values": [{"measurement": "activity at 1 h, 10 µM", "setting": "hERG (KCNH2)", "result": 52, "unit": "%"}]}
{"smiles": "Cc1cnccc1NC(=O)COc1ccc(C(=O)c2cc(Cl)ccc2Br)cc1", "values": [{"measurement": "IC50", "setting": "[9]", "result": 14.1, "unit": "nM"}, {"measurement": "activity at 1 h, 10 µM", "setting": "hERG (KCNH2)", "result": 15, "unit": "%"}]}
{"smiles": "O=C(COc1ccc(C(=O)c2cc(Cl)ccc2Br)cc1)Nc1ccnc(F)c1", "values": [{"measurement": "activity at 1 h, 10 µM", "setting": "hERG (KCNH2)", "result": 56.1, "unit": "%"}]}
{"smiles": "Cc1cc(NC(=O)COc2ccc(C(=O)c3cc(Cl)ccc3Br)cc2)ccn1", "values": [{"measurement": "Activity", "setting": "[2]", "result": "inactive"}, {"measurement": "Activity", "setting": "[6]", "result": "inactive"}, {"measurement": "Activity", "setting": "[3]", "result": "Active"}, {"measurement": "Activity", "setting": "[4]", "result": "Active"}, {"measurement": "Activity", "setting": "[7]", "result": "inactive"}, {"measurement": "activity at 1 h, 10 µM", "setting": "hERG (KCNH2)", "result": 9, "unit": "%"}]}
{"smiles": "O=C(COc1ccc(C(=O)c2ccccc2Br)cc1)Nc1cccnc1", "values": [{"measurement": "Activity", "setting": "[10]", "result": "inactive"}, {"measurement": "Activity", "setting": "[2]", "result": "Active"}, {"measurement": "Activity", "setting": "[11]", "result": "Active"}, {"measurement": "Activity", "setting": "[12]", "result": "Dose-dependent effect"}, {"measurement": "activity at 1 h, 10 µM", "setting": "hERG (KCNH2)", "result": 29.8, "unit": "%"}, {"measurement": "Activity", "setting": "[13]", "result": "Active"}]}
{"smiles": "N#Cc1cc(Cl)cc(NC(=O)COc2ccc(C(=O)c3cc(Cl)ccc3Br)cc2)c1", "values": [{"measurement": "activity at 1 h, 10 µM", "setting": "hERG (KCNH2)", "result": 36, "unit": "%"}]}
{"smiles": "COc1cc(NC(=O)COc2ccc(C(=O)c3cc(Cl)ccc3Br)cc2)ccn1", "values": [{"measurement": "activity at 1 h, 10 µM", "setting": "hERG (KCNH2)", "result": 90, "unit": "%"}]}
{"smiles": "O=C(COc1ccc(C(=O)c2cc(Cl)ccc2Br)cc1)Nc1ccncc1", "values": [{"measurement": "IC50", "setting": "[14]", "result": 43.7, "unit": "nM"}, {"measurement": "activity at 1 h, 10 µM", "setting": "hERG (KCNH2)", "result": 26.1, "unit": "%"}]}
{"smiles": "O=C(COc1ccc(C(=O)c2cc(Cl)ccc2Br)cc1)Nc1cccc(C(=O)NCC2CCC2)c1", "values": [{"measurement": "activity at 1 h, 10 µM", "setting": "hERG (KCNH2)", "result": 38, "unit": "%"}]}
{"smiles": "COc1ccc(NC(=O)COc2ccc(C(=O)c3cc(Cl)ccc3Br)cc2)cc1C#N", "values": [{"measurement": "activity at 1 h, 10 µM", "setting": "hERG (KCNH2)", "result": 60, "unit": "%"}]}
